{"source": "patent US7094752B2", "about": "(Chiron Corporation, priority 1997, dated 2006)", "key": {"uPAR": {"target": "T1, uPAR (Homo sapiens, UniProt Q03405)", "T1 construct": "sUPAR, soluble truncated form of the urokinase receptor; made in house; host or cells: baculovirus-infected Sf9 insect cells", "T1 sequence (Q03405 whole entry, looked up, the tested form may be a part)": "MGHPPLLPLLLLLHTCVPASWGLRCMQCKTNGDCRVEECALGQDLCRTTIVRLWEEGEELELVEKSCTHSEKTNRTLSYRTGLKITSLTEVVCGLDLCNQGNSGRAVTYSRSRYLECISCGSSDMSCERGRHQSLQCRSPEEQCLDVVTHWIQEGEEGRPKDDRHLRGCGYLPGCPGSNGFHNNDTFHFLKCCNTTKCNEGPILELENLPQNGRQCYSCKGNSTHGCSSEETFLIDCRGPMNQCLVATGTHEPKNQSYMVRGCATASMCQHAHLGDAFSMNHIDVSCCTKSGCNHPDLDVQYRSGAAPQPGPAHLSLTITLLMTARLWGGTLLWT", "experiment": "IC 50 (uM)^2", "experimental": "Table printed on a drawing sheet, FIG. 6\nHead of the field: IC 50 (uM)^2\nThe patent's description of the figure: FIG 6: Table. The table of FIG 6 depicts the sequences (SEQ ID NOS:12–17), phage yields, and IC50s in uPAR binding assays for selected phage peptides. Legend: 1. Individual phage were incubated with biotinylated suPAR with and without 10 μM uPA1–48 on streptavidin coated wells as described herein. The background yields of all phage without SuPAR in the wells ranged from 0.002–0.025%. Errors in yield are in the range 50%. 2. Apparent inhibition constant of the synthetic peptide in the uPAR receptor binding assay; errors are in the range of 20%. 3. NT=not determined because of peptide insolubility. 4. Clone 20 and 13–32 peptides were as described previously.\nFirst copying reader's note: The head is printed shifted: 'Phage Yield' covers the -1-48 and +1-48 columns and 'IC 50 (uM)' belongs to the last column; the raised marks 1-4 refer to a legend that is not printed on the sheet.\nWhere the first naming reader finds the target: description_of_the_figure: IC50s in uPAR binding assays for selected phage peptides"}, "uPA1–48:suPAR complex": {"target": "T2, uPA1–48:suPAR complex (Homo sapiens, UniProt Q03405)", "T2 construct": "sUPAR, soluble truncated form of the urokinase receptor; made in house; host or cells: suPAR: baculovirus-infected Sf9 cells; uPA1-48: recombinant yeast", "T2 sequence (Q03405 23-305, other chains not shown)": "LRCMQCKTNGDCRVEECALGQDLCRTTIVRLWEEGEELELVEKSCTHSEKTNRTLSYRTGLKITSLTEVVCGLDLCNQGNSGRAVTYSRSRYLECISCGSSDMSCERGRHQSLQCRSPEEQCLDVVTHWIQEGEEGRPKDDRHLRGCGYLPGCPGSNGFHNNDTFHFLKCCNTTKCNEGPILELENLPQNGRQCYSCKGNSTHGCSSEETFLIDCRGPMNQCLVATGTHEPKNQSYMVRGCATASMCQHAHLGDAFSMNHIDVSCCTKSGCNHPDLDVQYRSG", "experiment": "Bacteriophage 7 and 18 binding to uPA1–48:suPAR complex in presence of vitronectin", "settings": "clone 7 and 18 bacteriophage", "experimental": "The ability of the various bacteriophage derived peptides to affect binding of uPA1–48:uPAR complexes to vitronectin was assessed in the ELISA assay. Two classes of peptides were effective antagonists in this assay. […] None of the peptides when tested alone increased the binding of biotinylated suPAR to vitronectin. […] In order to test whether the clone 7 and 18 peptides bound directly at the vitronectin binding site on uPAR, and inhibited vitronectin binding by uPAR:uPA1–48 by direct competition for that site, the inventors examined the effects of vitronectin on the binding of these bacteriophage. Vitronectin reduced bacteriophage binding to the uPA1–48:suPAR complex by 5–10 fold, consistent with the hypothesis that these peptides mimic vitronectin as a uPAR ligand."}, "[1]": {"target": "T3, uPA1–48:uPAR complexes binding to vitronectin (Homo sapiens, UniProt Q03405)", "T3 construct": "sUPAR, soluble truncated form of the urokinase receptor; made in house; host or cells: suPAR: baculovirus-infected Sf9 cells; uPA1-48: recombinant yeast; vitronectin: purified from human plasma", "T3 sequence (Q03405 23-305 limits assumed, one chain of several)": "as the sequence (Q03405 23-305, other chains not shown) above", "experiment": "Vitronectin binding assay (ELISA)", "settings": "20 nM biotinylated suPAR, 20 nM uPA1–48", "experimental": "Vitronectin was purified from human plasma by the method of Yatohgo et al, Cello Struct.and Funct. 13: 281–292 (1988). Purified vitronectin was diluted to 20 μg/ml in PBS containing 1 mM CaCl2 and 0.5 mM MgCl2, dispensed at 50 μl/well into Immulon II wells (Dynatech, Chantilly, Va.), incubated overnight at 4° C. and washed with PBS/BSA. Biotinylated sUPAR was diluted to 20 nM in PBS/BSA, incubated with or without test ligand for 30 minutes at room temperature (22° C.), dispensed at 100 μl/well and incubated for 90 minutes. Wells were then washed and horseradish peroxidase (HRP)-conjugated streptavidin was added at 0.4 μg/ml in PBS/2% BSA for 1 hour followed by washing and addition of 100 μl/well TMB substrate. The color development was stopped with 100 μl of 0.8N H2SO4 and the absorbance at 450 nm measured in a 96 well plate reader (Dynatech, Chantilly, Va.). Antagonistic effects of test ligands were measured as described above except the ligands were incubated with 20 nM biotinylated suPAR in the presence of 20 nM uPA1–48.\nIn order to analyze the effects of the various peptide ligands on the uPAR:vitronectin interaction, we developed an in vitro ELISA based assay for this interaction, in which biotinylated suPAR and uPA1–48 bind to immobilized, urea purified vitronectin, and the bound sUPAR is detected with HRP conjugated streptavidin. Under the conditions of the assay binding of biotinylated uPAR to vitronectin is strictly dependent on uPA1–48, as shown in FIG. 1."}, "suPAR [2]": {"target": "T4, suPAR (Homo sapiens, UniProt Q03405)", "T4 construct": "sUPAR, soluble truncated form of the urokinase receptor; made in house; host or cells: baculovirus-infected Sf9 insect cells", "T4 sequence (Q03405 23-305 limits assumed)": "as the sequence (Q03405 23-305, other chains not shown) above", "experiment": "suPAR binding assay (competition for uPA1–48 binding)", "settings": "synthetic peptide", "experimental": "Twenty-eight independent bacteriophage were isolated and the random peptide encoding DNA segments sequenced. […] This is in contrast to previous results of affinity selection on uPAR alone, where the majority of selected bacteriophage bound with substantial yield as described in Goodson et al, Proc.Natl.Acad.Sci. USA 91: 7129–7133 (1994). The yields of these four bacteriophage were determined on suPAR in the presence and absence of uPA1–48. In addition, the encoded peptides were synthesized and tested as competitors in a suPAR binding assay as described in Stratton-Thomas et al, Prot.Eng. 8: 463–470 (1995), and Kaufman et al Anal.Biochem. 211: 261–266 (1993)."}, "suPAR [3]": {"target": "T4, suPAR", "experiment": "SuPAR:1-anilino-8-napthalenesulfonate (ANS) fluorescence", "format": "binding", "settings": "2 μM sUPAR, 10 μM ANS, 0 to 20 μM competitor", "experimental": "Determination of the effect of various peptide ligands on sUPAR/ANS fluorescence was performed following a procedure similar to that of Ploug et al, Biochem. 33: 8991–8997 (1994). Fluorescence emission spectra of sUPAR/ANS solutions with or without competitors were obtained using an Hitachi F-4500 fluorescence spectrophotometer with an excitation wavelength of 386 nm, 5-nm band-pass excitation and emission slits, and a 10 mm path length quartz cuvette. The emission spectra from 400 to 600 nm were recorded. For competition measurements, dilutions of a stock sUPAR/ANS solution were made to give individual 0.5 ml aliquots with a final concentration of 2 μM sUPAR, 10 μM ANS, and 0 to 20 μM competitor in PBS containing 10% DMSO. Fluorescence measurements were made after a one hour incubation at 25° C."}, "[4]": {"test_system": "uPAR mediated adhesion of stimulated U937 cells", "experiment": "Adhesion of stimulated U937 cells to vitronectin", "format": "cell-based", "text": "Previous results had shown that vitronectin binding by uPAR correlated with cell adhesion of stimulated U937 cells as described in Wei et al, J. Biol. Chem. 269: 32380–32388 (1994). It was found also that clone 7 peptide could block uPAR mediated adhesion of these cells, whereas the scrambled version of the same peptide had no effect."}, "sUPAR domain 2–3 (D23)": {"target": "T5, sUPAR domain 2–3 (D23) (Homo sapiens, UniProt Q03405)", "T5 construct": "domains 2 and 3 (amino acids 93–313); made in house; host or cells: baculovirus infected Sf9 insect cells", "T5 sequence (Q03405 115-335)": "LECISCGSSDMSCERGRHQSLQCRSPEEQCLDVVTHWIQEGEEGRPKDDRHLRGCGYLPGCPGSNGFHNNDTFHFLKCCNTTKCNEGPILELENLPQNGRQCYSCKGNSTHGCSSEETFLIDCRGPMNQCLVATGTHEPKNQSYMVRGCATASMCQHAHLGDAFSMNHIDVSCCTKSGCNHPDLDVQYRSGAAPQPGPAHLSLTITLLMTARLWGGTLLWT", "experiment": "Bacteriophage binding to sUPAR domain 2/3", "settings": "phage-displayed peptide", "experimental": "FIG. 5. Bacteriophage binding to sUPAR domain 2/3. Phage were added to wells containing sUPAR domain 2/3 immobilized by its epitope tag via protein G and monoclonal antibody to the epitope tag. Wells containing protein G and antibody but no domain 2/3 were included to determine nonspecific phage binding. Urea-eluted phage and the input stocks were titered by plaque formation assay. Results were single point determinations calculated as a percent of the input titer and were repeated in three separate experiments.\nIt was also shown by the inventors that bacteriophage bound to sUPAR domain 2–3fragment. Protein G, 100μl, 1 mg/ml in 50 mM Na2CO3, pH9.6, was added to MaxiSorp wells, incubated overnight at 4° C. and then washed with PBS/BSA. Fifty μl of monoclonal antibody to the epitope tag EYMPME (SEQ ID NO: 18) was added at 1 mg/ml in PBS/BSA and incubated for 2 hours at room temperature. The wells were washed, recombinant sUPAR domain 2–3 (1.7 μM in PBS/BSA) was added and incubated for 1.5 hours at room temperature. The wells were washed prior to the addition of bacteriophage (approximately 10^8 pfu), and then treated as described in the previous section for binding to suPAR."}, "soluble uPAR": {"target": "soluble uPAR (Homo sapiens, UniProt Q03405)", "sequence (Q03405 23-305 limits assumed)": "as the sequence (Q03405 23-305, other chains not shown) above", "method": "Streptavidin, 100 μl (0.1 mg/ml) in 50 mM Na2CO3, pH 9.6, was added to MaxiSorp wells (Nunc), incubated overnight at 4 C, and then washed with PBS/BSA. Biotinylated sUPAR (25 nM in PBS/BSA) was added to the wells and incubated for 2 hours at room temperature prior to washing. Competitive peptide inhibitors were added to the wells immediately prior to addition of the bacteriophage. The wells were incubated for one hour at room temperature, then washed and bound bacteriophage eluted with 6M urea in 0.1N HCl, pH 2.5. After 15 minutes, the urea eluate was brought to neutral pH by addition of 2M Tris base and the bacteriophage titers of input stocks and elutions measured by plaque formation assay. Results were expressed as the percent of input bacteriophage which bind to the wells. Alternatively, the amount of bacteriophage was determined in an ELISA where phage were preincubated with HRP-conjugated anti-M13 antibody for 30 minutes at room temperature before dispensing into wells prepared as above and incubated for one hour at room temperature. The final anti-M13 conjugate dilution was 1:4000. After washing, TMB substrate (100 μl/well) was added and color development was stopped with 0.8N H2SO4 (100 μl/well). The absorbance at 450 nm was then measured in a 96 well plate reader.\nIn a uPAR binding assay, the following analogs were tested in a competition with phage displaying either peptide 25 or peptide 9. The analogs comprise both natural and unnatural amino acids.\nThe analogs were tested for their ability to compete with phage displaying either peptide 9 or peptide 25. […] Approximately 10^8 plaque forming units of the phage were used in the assay."}, "nontransfected 293 cells": {"test_system": "nontransfected 293 cells", "experiment": "Adhesion of nontransfected 293 cells to fibronectin or collagen", "format": "cell-based", "settings": "recombinant soluble uPAR added, dose dependent", "text": "To explore whether uPAR binds to integrins, nontransfected 293 cells were allowed to adhere to fibronectin or collagen in the presence of recombinant soluble uPAR (suPAR)."}}, "note": "Entries after “also recorded” stand apart in the source; their conditions may differ. Like-named read-outs stand apart in the source and are kept apart here. Ends that are not written are not given here."}
{"substance": "H-AEPMPHSLNFSQYLWYT-NH2 [20^4]", "values": [{"measurement": "IC50", "setting": "uPAR", "value": 0.01, "unit": "µM"}]}
{"substance": "CLNGGTAVSNKYFSNLHWC [13-32^4]", "values": [{"measurement": "IC50", "setting": "uPAR", "value": 0.25, "unit": "µM"}]}
{"substance": "H-AESTYHHLSLGYMYTLN-NH2 [compound 25]", "values": [{"measurement": "IC50", "setting": "uPAR", "value": "> 10", "unit": "µM"}]}
{"substance": "vitronectin: vitronectin purified from human plasma", "values": [{"measurement": "reduction of bacteriophage binding to the uPA1–48:suPAR complex", "setting": "uPA1–48:suPAR complex", "value": "5–10 fold"}, {"measurement": "effect on binding of uPA1–48:uPAR complexes to vitronectin", "setting": "[1]", "value": "blocked"}]}
{"substance": "AEPVYQYELDSYLRSYY-NH2 [peptide 7]", "values": [{"measurement": "IC50", "setting": "uPAR", "value": 10, "unit": "µM"}, {"measurement": "competition for uPA1–48 binding to sUPAR / receptor binding activity (in words)", "setting": "suPAR [2]", "value": "greatly reduced competition for uPA1–48 binding"}, {"measurement": "effect on ANS fluorescence enhancement in the presence of uPAR", "setting": "suPAR [3]", "value": "reduced fluorescence in a dose dependent manner"}, {"measurement": "block of uPAR mediated adhesion of stimulated U937 cells to vitronectin", "setting": "[4]; listed as clone 7", "value": "effective blocker"}, {"measurement": "block of uPAR mediated adhesion of stimulated U937 cells to vitronectin", "setting": "[4]; listed as clone 7 peptide", "value": "could block"}, {"measurement": "bacteriophage binding to immobilized D23 versus sUPAR", "setting": "sUPAR domain 2–3 (D23)", "value": "intermediate degree of binding to D23"}, {"measurement": "reduced binding to D23 versus suPAR", "setting": "sUPAR domain 2–3 (D23)", "value": "about 50 fold"}, {"measurement": "effect on binding of uPA1–48:uPAR complexes to vitronectin", "setting": "[1]", "value": "inhibits complex binding to vitronectin"}, {"measurement": "effect on binding of uPA1–48:uPAR complexes to vitronectin", "setting": "[1]; listed as clone 7", "value": "inhibit complex binding"}]}
{"substance": "AELDLSTFYDIQYLLRT-NH2 [peptide 18]", "values": [{"measurement": "IC50", "setting": "uPAR", "value": 10, "unit": "µM"}, {"measurement": "competition for uPA1–48 binding to sUPAR / receptor binding activity (in words)", "setting": "suPAR [2]", "value": "greatly reduced competition for uPA1–48 binding"}, {"measurement": "bacteriophage binding to immobilized D23 versus sUPAR", "setting": "sUPAR domain 2–3 (D23)", "value": "intermediate degree of binding to D23"}, {"measurement": "effect on binding of uPA1–48:uPAR complexes to vitronectin", "setting": "[1]", "value": "blocks binding of complexes to vitronectin"}, {"measurement": "effect on binding of uPA1–48:uPAR complexes to vitronectin", "setting": "[1]; listed as clone 18", "value": "inhibit complex binding"}]}
{"substance": "VEYRDAYSYPQYLSYLE [scrambled version of clone 7, same amino acids as clone 7, but in a different order, reference compound]", "values": [{"measurement": "block of uPAR mediated adhesion of stimulated U937 cells to vitronectin", "setting": "[4]", "value": "no effect"}, {"measurement": "effect on binding of uPA1–48:uPAR complexes to vitronectin", "setting": "[1]", "value": "did not; also recorded: does not"}]}
{"substance": "H-AEFFKLGPNGYVYLHSA-NH2 [peptide 9]", "values": [{"measurement": "% Inhibition 2.5 uM", "setting": "soluble uPAR; 2500.0", "value": 59, "unit": "%"}, {"measurement": "% Inhibition 5 uM", "setting": "soluble uPAR; 5000.0", "value": 71, "unit": "%"}, {"measurement": "bacteriophage binding to immobilized D23 versus sUPAR", "setting": "sUPAR domain 2–3 (D23)", "value": "bind equivalently to the D23 fragment and full-length receptor"}]}
{"substance": "AE PMPHSLNFSQYAWYT [analog of clone 20 peptide, reference compound]", "values": [{"measurement": "competition for uPA1–48 binding to sUPAR / receptor binding activity (in words)", "setting": "suPAR [2]", "value": "greatly reduced receptor binding activity"}, {"measurement": "effect on binding of uPA1–48:uPAR complexes to vitronectin", "setting": "[1]", "value": "did not affect binding to vitronectin"}]}
{"substance": "uPA13–32: amino acids 13–32 of human urokinase with Cys19 converted to Ala (CLNGGTAVSNKYFSNIHWCN) [reference compound]", "values": [{"measurement": "competition for uPA1–48 binding to sUPAR / receptor binding activity (in words)", "setting": "suPAR [2]", "value": "compete directly for uPA1–48 binding"}, {"measurement": "bacteriophage binding to immobilized D23 versus sUPAR", "setting": "sUPAR domain 2–3 (D23)", "value": "bind signficantly only to intact sUPAR"}, {"measurement": "effect on binding of uPA1–48:uPAR complexes to vitronectin", "setting": "[1]", "value": "reduce binding"}]}
{"substance": "suPAR: soluble recombinant human urokinase receptor from baculovirus-infected Sf9 insect cells", "values": [{"measurement": "adhesion of nontransfected 293 cells to fibronectin and collagen", "setting": "nontransfected 293 cells", "value": "inhibited adhesion"}]}
